Measurements published in PubChem BioAssay (NCI).
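Growth conditions: 96-well plates. Treatment: test compound, 48 hours, 5 concentrations. Analysis: linear interpolation between bracketing concentrations; unreached endpoints set to highest concentration. The concentration for 50% growth inhibition is given as GI50. TGI marks complete inhibition of growth.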

tested on: MDA-MB-468 breast; assay: NCI tumour cell line growth inhibition, 48 h

Compound	GI50 [µM]	TGI [µM]
Clc1ccc2c(c1)C(Br)c1cc(Cl)cc(Cl)c1-2 (stereo not drawn)	35.6	> 100
CC(C)=CCC/C(C)=C/CC/C(C)=C/CC/C(C)=C/CSC[C@H](NC(=O)CCCCCN1CCN(C)CC1)C(=O)NC1CCCCC1	1.97	4.49
COc1cc(-c2ccc(-c3ccc(C(=N)N)cc3)s2)cc(OC)c1OC	1.64	3.15
COC(=O)[C@@H](C)C[C@H](Cc1ccc2ccccc2c1)NC(=O)c1csc([C@@H](C[C@H](C(C)C)N(C)C(=O)[C@@H](NC(=O)[C@H]2CCCCN2C)C(C)C)OC(C)=O)n1	0.00683	> 25
C=C1C(=O)O[C@H]2[C@H]1CC/C(COC(=O)/C=C/C(=O)NCc1ccc(Cn3c(=O)sn(-c4ccccc4)c3=O)cc1)=C\CC[C@@]1(C)O[C@@H]21	1.35	3.69
C[n+]1c(-c2ccccc2)c2cc(N)ccc2c2ccccc21	0.224	1.53
c1ccc([P+](c2ccccc2)(c2ccccc2)c2ccc3c4ccc([P+](c5ccccc5)(c5ccccc5)c5ccccc5)c5cccc(c6cccc2c63)c54)cc1	0.838	7.46
CCn1c(=O)c(Oc2ccc(F)cc2F)cc2cnc(NC3CCOCC3)nc21	> 25	> 25
c1ccc2cc(C[n+]3ccn(CCCCCCCCCCCCn4cc[n+](Cc5ccc6ccccc6c5)c4)c3)ccc2c1	0.494	1.28
Nc1nonc1C(=Nc1ccc(F)c(Cl)c1)NO	29.8	> 100
CCOC(=O)N1C/C(=C/c2ccc(Cl)cc2)C(=O)/C(=C/c2ccc(Cl)cc2)C1	1.96	5
CCNCc1c(-c2cccc(OC(F)(F)F)c2)[nH]c2ccc(N3CCCC3)cc2c1=O	2.22	5.74
C#CCn1cnc2cnc(Nc3cccc(NC(=O)CCl)c3)nc21	8.13	22.8
CC1(C)C(N(O)C(=O)Nc2ccc(Cl)cc2)N(c2ccc(Cl)cc2)C(=O)N1CC(=O)N/N=C/C=C/c1ccc([N+](=O)[O-])o1 (stereo not drawn)	1.62	5.35
O=C1[C@@H]2Cc3c([nH]c4ccccc34)[C@H](c3c(Cl)cccc3Cl)N2C(=O)CN1C1CCN(Cc2ccccc2)CC1	2.09	4.27
CC1(C)CN(c2cc(C(F)(F)F)cc3cncn23)CCC12NC(=O)NC2=O (stereo not drawn)	22.5	82.9
N#Cc1c(-c2ccccc2)cc(-c2ccccc2)n(CCCC(=O)NO)c1=O	1.46	4.56
O=C(Nc1nc(-c2ccc(Cl)cc2)cs1)c1cc(-c2ccc(Br)cc2)nc2ccc(Cl)cc12	10.9	78.3
CCN(CC)Cc1cc(Nc2c3ccc(Cl)cc3nc3ccc(OC)cc23)ccc1O	1.71	3.67
O=C(c1ccc(Cl)cc1)c1no[n+]([O-])c1C(=O)c1ccc(Cl)cc1	9.22	27.7
COc1ccc(-c2cc(-c3ccccc3)nc(SCCCC(=O)NO)n2)cc1OC	1.44	3.62
COc1ccc(CC(C)=C(c2ccc(OCCN3CCCCCC3)cc2)c2ccc(OCCN3CCCCCC3)cc2)cc1	0.176	0.667
C#C[C@]1(O)CC[C@H]2[C@@H]3CC=C4c5sc(Nc6nc(C)cc(OC)n6)nc5CC[C@]4(C)[C@H]3CC[C@@]21C	4.47	> 100
CCO/C=N/C1=C(C#N)C(c2ccc(OC)cc2)c2sc3c(F)cccc3c2O1 (stereo not drawn)	2.41	19.4
Nc1nc(N)c(N=Nc2ccccc2)c(-c2ccccc2)n1	1.06	11.4
Cn1ncc(NC(=O)c2nc(-c3c(F)cccc3F)sc2N)c1N1CC[C@@H](N)[C@H](F)CC1	9.7	26.8
COc1cc2ccnc(C=O)c2cc1OC	31.9	> 100
CNC(=O)NCC1OC(n2cnc3c(NC(=O)Nc4ccccc4)ncnc32)C(O[Si](C)(C)C(C)(C)C)C1CC(=O)N(C)OC (stereo not drawn)	1.87	6.38
COc1ccc(/C=C/C(=O)c2cc3c(N)c(C(=O)Nc4cccc(Cl)c4C)sc3nc2C)cc1	0.176	2.45
